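Cells were grown in 96-well plates and exposed to each compound for 48 hours at five concentrations; endpoints were interpolated linearly between bracketing concentrations, or set to the highest concentration if not reached. GI50 is the concentration that inhibits growth by half.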 The source made the active and inactive calls. Rule as the data show it: active = GI50 up to about 1.1 µM and inactive = higher.
Columns and labels:
Test in all cases: DTP human tumour cell line panel, 48 h
HCT-15 = test system: HCT-15
HL-60 = test system: HL-60
UACC-257 = test system: UACC-257
LOX IMVI = test system: LOX IMVI
SF-268 = test system: SF-268
HT-29 = test system: HT-29
SNB-75 = test system: SNB-75
NCI-H460 = test system: NCI-H460
786-0 = test system: 786-0
HCT-116 = test system: HCT-116
SNB-78 = test system: SNB-78
NCI-H226 = test system: NCI-H226
HCC 2998 = test system: HCC 2998
MCF7 = test system: MCF7
OVCAR-3 = test system: OVCAR-3
MDA-N = test system: MDA-N
T47D = test system: T47D
Hs-578T = test system: Hs-578T
MDA-MB-435 = test system: MDA-MB-435
BT-549 = test system: BT-549

O=C(CSc1nnc(-c2ccc(/N=C\c3ccc(Cl)cc3)cc2)o1)Nc1ccccc1
GI50 (HCT-15): 68.2 µM
GI50 (HL-60): 34.4 µM (inactive)
GI50 (UACC-257): > 100 µM (inactive)
GI50 (LOX IMVI): 19.6 µM (inactive)
GI50 (SF-268): 35.7 µM (inactive)
GI50 (HT-29): 44.2 µM (inactive)
GI50 (SNB-75): 94.8 µM (inactive)
GI50 (NCI-H460): > 100 µM (inactive)
GI50 (786-0): 21.5 µM (inactive)
GI50 (HCT-116): 16.6 µM (inactive)
GI50 (SNB-78): 63.1 µM (inactive)
GI50 (NCI-H226): > 100 µM (inactive)

COc1cc(-c2ccc(/N=N/c3c(S(=O)(=O)O)cc4cc(S(=O)(=O)O)cc(N)c4c3O)c(OC)c2)ccc1/N=N/c1c(S(=O)(=O)O)cc2cc(S(=O)(=O)O)cc(N)c2c1O
GI50 (HCT-15): 59.6 µM
GI50 (HL-60): 29.9 µM (inactive)
GI50 (UACC-257): > 100 µM (inactive)
GI50 (HCC 2998): > 100 µM (inactive)
GI50 (LOX IMVI): > 90.6 µM (inactive)
GI50 (SF-268): > 100 µM (inactive)
GI50 (HT-29): > 62.1 µM (inactive)
GI50 (SNB-75): 37.4 µM (inactive)
GI50 (NCI-H460): > 100 µM (inactive)
GI50 (HCT-116): > 100 µM (inactive)
GI50 (SNB-78): 78.3 µM (inactive)
GI50 (NCI-H226): > 62.1 µM (inactive)
GI50 (MCF7): > 100 µM (inactive)
GI50 (OVCAR-3): > 62.8 µM (inactive)

COc1cc[n+](C)cc1
GI50 (HCT-15): > 100 µM
GI50 (HL-60): > 100 µM (inactive)
GI50 (UACC-257): > 100 µM (inactive)
GI50 (HCC 2998): > 100 µM (inactive)
GI50 (LOX IMVI): > 100 µM (inactive)
GI50 (SF-268): > 100 µM (inactive)
GI50 (HT-29): > 100 µM (inactive)
GI50 (SNB-75): > 100 µM (inactive)
GI50 (NCI-H460): > 100 µM (inactive)
GI50 (HCT-116): > 100 µM (inactive)
GI50 (SNB-78): > 100 µM (inactive)
GI50 (NCI-H226): > 100 µM (inactive)
GI50 (MCF7): > 100 µM (inactive)
GI50 (OVCAR-3): > 100 µM (inactive)

O=c1cc(O)ccn1C1C=C(CO)C(O)C1O (stereo not given)
GI50 (HCT-15): > 625 µM
GI50 (HL-60): 183 µM (inactive)
GI50 (HCC 2998): > 625 µM (inactive)
GI50 (LOX IMVI): 455 µM (inactive)
GI50 (SF-268): > 625 µM (inactive)
GI50 (HT-29): > 625 µM (inactive)
GI50 (SNB-75): > 625 µM (inactive)
GI50 (NCI-H460): 131 µM (inactive)
GI50 (HCT-116): 263 µM (inactive)
GI50 (SNB-78): > 625 µM (inactive)
GI50 (NCI-H226): > 625 µM (inactive)
GI50 (MCF7): > 625 µM (inactive)
GI50 (OVCAR-3): > 625 µM (inactive)

COC(=O)C1C(C(=O)OC)C1(Br)CBr (stereo not given)
GI50 (HCT-15): 17.9 µM
GI50 (HL-60): 43.2 µM (inactive)
GI50 (UACC-257): > 100 µM (inactive)
GI50 (MDA-N): 63.7 µM (inactive)
GI50 (HCC 2998): > 100 µM (inactive)
GI50 (LOX IMVI): 20.9 µM (inactive)
GI50 (SF-268): 28.9 µM (inactive)
GI50 (HT-29): 24 µM (inactive)
GI50 (SNB-75): > 100 µM (inactive)
GI50 (NCI-H460): > 100 µM (inactive)
GI50 (786-0): 20.4 µM (inactive)
GI50 (HCT-116): 39.3 µM (inactive)
GI50 (T47D): 23.2 µM (inactive)
GI50 (Hs-578T): 89.1 µM (inactive)
GI50 (MDA-MB-435): 60.5 µM (inactive)
GI50 (NCI-H226): > 100 µM (inactive)
GI50 (BT-549): 33.1 µM (inactive)
GI50 (MCF7): 46.1 µM (inactive)
GI50 (OVCAR-3): 89.3 µM (inactive)

CN1C(=O)C2C=C3CCCCC3=CC2N(C)C1=O (stereo not given)
GI50 (HCT-15): > 100 µM
GI50 (HL-60): > 100 µM (inactive)
GI50 (UACC-257): > 100 µM (inactive)
GI50 (MDA-N): > 100 µM (inactive)
GI50 (HCC 2998): > 100 µM (inactive)
GI50 (LOX IMVI): > 100 µM (inactive)
GI50 (SF-268): > 100 µM (inactive)
GI50 (HT-29): > 100 µM (inactive)
GI50 (SNB-75): > 100 µM (inactive)
GI50 (NCI-H460): > 100 µM (inactive)
GI50 (HCT-116): > 100 µM (inactive)
GI50 (T47D): > 100 µM (inactive)
GI50 (Hs-578T): > 100 µM (inactive)
GI50 (MDA-MB-435): > 100 µM (inactive)
GI50 (NCI-H226): > 100 µM (inactive)
GI50 (BT-549): > 100 µM (inactive)
GI50 (MCF7): > 100 µM (inactive)
GI50 (OVCAR-3): > 100 µM (inactive)

O=S(=O)(N/C(=N\O)Nc1ccc(Cl)cc1)c1ccccc1
GI50 (HCT-15): 7.66 µM
GI50 (HL-60): 4.99 µM (inactive)
GI50 (UACC-257): 10.5 µM (inactive)
GI50 (MDA-N): 3.9 µM (inactive)
GI50 (HCC 2998): 7.1 µM (inactive)
GI50 (LOX IMVI): 13.4 µM (inactive)
GI50 (SF-268): 10.8 µM (inactive)
GI50 (HT-29): 16.1 µM (inactive)
GI50 (SNB-75): 1.71 µM (inactive)
GI50 (NCI-H460): 13.4 µM (inactive)
GI50 (786-0): 1.87 µM (inactive)
GI50 (HCT-116): 10.7 µM (inactive)
GI50 (T47D): 2.74 µM (inactive)
GI50 (Hs-578T): 6.46 µM (inactive)
GI50 (MDA-MB-435): 9.23 µM (inactive)
GI50 (NCI-H226): 33.7 µM (inactive)
GI50 (BT-549): 12.6 µM (inactive)
GI50 (MCF7): 12.6 µM (inactive)
GI50 (OVCAR-3): 1.23 µM (inactive)

C[C@H]1COC2(c3ccccc3)CCC(=O)N12 (stereo not given in full)
GI50 (HCT-15): > 100 µM
GI50 (UACC-257): > 100 µM (inactive)
GI50 (LOX IMVI): > 100 µM (inactive)
GI50 (SF-268): > 100 µM (inactive)
GI50 (HT-29): > 100 µM (inactive)
GI50 (SNB-75): > 100 µM (inactive)
GI50 (NCI-H460): > 100 µM (inactive)
GI50 (786-0): > 100 µM (inactive)
GI50 (HCT-116): > 100 µM (inactive)
GI50 (SNB-78): > 100 µM (inactive)
GI50 (OVCAR-3): > 100 µM (inactive)

Reference: ChEMBL document CHEMBL1201862, “PubChem BioAssay data set” (2004)
